Measured values reported in PubChem BioAssay (NCI).
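A five-concentration, 48-hour dose response in 96-well plates underlies each endpoint, interpolated linearly between surrounding concentrations. TGI is the concentration that stops growth completely.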 Where a SMILES comes first, the peptide text is derived from it.

Columns and labels:
Test in all cases: NCI anticancer screen, dose series, 48 h
A498 renal = system: A498 renal
EKVX NSCLC = system: EKVX NSCLC
HCC-2998 colon = system: HCC-2998 colon
HCT-15 colon = system: HCT-15 colon
HOP-92 NSCLC = system: HOP-92 NSCLC
M14 melanoma = system: M14 melanoma
MALME-3M melanoma = system: MALME-3M melanoma
MCF7 breast = system: MCF7 breast
MOLT-4 leukemia = system: MOLT-4 leukemia
NCI-H226 lung = system: NCI-H226 lung
NCI-H460 lung = system: NCI-H460 lung
NCI/ADR-RES ovarian = system: NCI/ADR-RES ovarian
OVCAR-8 ovarian = system: OVCAR-8 ovarian
SF-268 CNS = system: SF-268 CNS
SF-295 CNS = system: SF-295 CNS
SNB-19 CNS = system: SNB-19 CNS
SR leukemia = system: SR leukemia
U251 CNS = system: U251 CNS
BT-549 breast = system: BT-549 breast

Structure (SMILES)	TGI (A498 renal) [µM]	TGI (EKVX NSCLC) [µM]	TGI (HCC-2998 colon) [µM]	TGI (HCT-15 colon) [µM]	TGI (HOP-92 NSCLC) [µM]	TGI (M14 melanoma) [µM]	TGI (MALME-3M melanoma) [µM]	TGI (MCF7 breast) [µM]	TGI (MOLT-4 leukemia) [µM]	TGI (NCI-H226 lung) [µM]	TGI (NCI-H460 lung) [µM]	TGI (NCI/ADR-RES ovarian) [µM]	TGI (OVCAR-8 ovarian) [µM]	TGI (SF-268 CNS) [µM]	TGI (SF-295 CNS) [µM]	TGI (SNB-19 CNS) [µM]	TGI (SR leukemia) [µM]	TGI (U251 CNS) [µM]	TGI (BT-549 breast) [µM]
COC(=O)c1cc(C)ccc1C1CN=NC12Cc1cccc(C)c1C2=O (stereo not given)	> 100	95.6	> 100	> 100	> 100	38.9	67.5	> 100	54.7	> 100	72.3	77.9	> 100	> 100	> 100	> 100	> 100	> 100	
COC(=O)C(Cc1c(C2Nc3ccccc3C2CC(NC(C)=O)C(=O)OC)[nH]c2ccccc12)NC(C)=O (stereo not given)	> 100	> 100		> 100	> 100	> 100	> 100		> 100	> 100	> 100	> 100	> 100	> 100	> 100	> 100		> 100	> 100
COC(=O)c1cnn2c1ccc1ccccc12	> 100	> 100		> 100	> 100	> 100	> 100		> 100	> 100	> 100	> 100	> 100	> 100	> 100	> 100		> 100	> 100
NC(=O)CCC(CCC(N)=O)(CCC(N)=O)[N+](=O)[O-]		> 100		> 100	> 100	> 100	> 100	> 100	> 100	> 100	> 100	> 100	> 100	> 100	> 100	> 100		> 100	> 100
CCOC(=O)c1c[nH]cc1-c1cn(S(=O)(=O)c2ccccc2)cc1C	> 10	71.3	41	76.4	> 100	44.3	40.4	61	> 100		47.3	> 100	> 100	78.6	> 100	> 100		85.4	74.8
C/C=C1\CNC1C(=O)O (stereo not given)	> 100	> 100	> 100	> 100	> 100		> 100	> 100			> 100	> 100	> 100	> 100	> 100	> 100			> 100
CC(C)[Si](OC1=C(C(=O)N(C)c2ccccc2Cl)CCCCC1)(C(C)C)C(C)C	> 100	> 100		> 100	> 100	> 100	> 100		> 100	> 100	> 100	> 100	> 100	> 100	> 100	> 100		> 100	> 100
CN(C)C1(N(C)C)Oc2c(c(=O)n(C)c(=O)n2C)C(c2ccccc2Br)C1(F)F (stereo not given)	> 100	> 100	> 100	> 100	> 100	> 100		> 100	> 100	> 100	> 100	> 100		> 100	> 100	> 100		> 100	> 100
C=C1CC2CC(=O)C(O)C(C1)C2 (stereo not given)	> 100	> 100	> 100	> 100	> 100	> 100		> 100	> 100	> 100	> 100	> 100	> 100	> 100	> 100		> 100		
C/C=C1/CN2CCC34c5ccccc5N(C)C23C2CC1C4(C(=O)OC)C(O)O2 (stereo not given)	> 100	> 100	> 100	> 100	> 100	> 100		> 100	> 100	> 100	> 100	> 100	> 100	> 100	> 100	> 100		> 100	> 100
NC(=NCCN1CCCCCCC1)NO	> 100	> 100	> 100	> 100	> 100	> 100	> 100	> 100	> 100	> 100	> 100	> 100	> 100	> 100	> 100	> 100	> 100		
Nc1ncnc2c1ncn2C1C=CC(COS(N)(=O)=O)C1 (stereo not given)		> 100	> 100	> 100	87.3	> 100	> 100	> 100	> 100	> 100	> 100	> 100	> 100	> 100	> 100	> 100	> 100	> 100	
CC1=CC(=O)C(=CN2C(=O)/C(=C\c3cccnc3)NC2=S)C(=O)O1		> 100	> 100	> 100	> 100	> 100		> 100	> 100	> 100	> 100	> 100	> 100		> 100	> 100		> 100	> 100
C(=NCCCN1CCN(CCCN=Cc2cccc3ccccc23)CC1)c1cccc2ccccc12		> 100	> 100	> 100		> 100	> 100		> 100	> 100	> 100	> 100	> 100	> 100	> 100	> 100	> 100	> 100	90.8
CC(=O)C1=C(C)N2C(=NC3=C(CCc4ccccc43)C2c2cccc(Br)c2)S1 (stereo not given)	> 100	> 100	> 100	> 100	> 100	> 100		> 100		> 100		> 100	> 100	> 100	> 100	> 100		> 100	> 100
N#C/C(C(=S)Nc1ccccc1)=C(/N)N1CCCC1	> 100	> 100	> 100	> 100	> 100	> 100	> 100	> 100	> 100	> 100	> 100	> 100	> 100	> 100	> 100	> 100	> 100	> 100	
CCOC(=O)c1nnsc1NN=C(C)C	> 100	> 100	> 100	> 100		> 100	> 100		> 100	> 100	> 100	> 100	> 100	> 100	> 100			> 100	> 100
CC(CO)(CBr)COC(=O)c1cc(Br)c(N)c(Br)c1 (stereo not given)	> 100	> 100	> 100	> 100	45.9	> 100			> 100	> 100		> 100	> 100	> 100	> 100	> 100	> 100	> 100	> 100
CC(C)n1c(=O)[nH]n(-c2ccccc2)c1=O	> 100	> 100		> 100	> 100	> 100	> 100	> 100	> 100	> 100	> 100	> 100	> 100	> 100	> 100	> 100	> 100	> 100	
COCCN(CCOC)C(=O)COc1c2cc(C(C)(C)C)cc1Cc1cc(C(C)(C)C)cc(c1OCC(=O)N(CCOC)CCOC)Cc1cc(C(C)(C)C)cc(c1OCC(=O)N(CCOC)CCOC)Cc1cc(C(C)(C)C)cc(c1OCC(=O)N(CCOC)CCOC)Cc1cc(C(C)(C)C)cc(c1OCC(=O)N(CCOC)CCOC)C2	9.53	2.8	18.3	11.8		13	16.9	6.42		11	5.86	33	22.8	19.1	6.43	16.4	3.63	2.05	
CNC(=O)CNC(=O)C(NC(=O)CNC(=O)C1CCCN1C(=O)C(C)NC(=O)C(NC(C)=O)C(C)C)C(C)C (stereo not given) (Ac-VAPGVG-NHMe; configuration not given here)	> 100	> 100	> 100	> 100	> 100	> 100	> 100	> 100	> 100		> 100	> 100	> 100	> 100	> 100	> 100	> 100	> 100	
